Experimental findings from US20260216347A1, “Substituted Imidazo-Based Compounds as Ligand Directed Degraders of IRAK3” (Celgene Corporation, priority 2022, published 2026) are described below.

A word on the IC50: it is the concentration needed to halve the response being measured. Read a low IC50 as higher potency.

The target of assay [1] is T1, IRAK3 (Homo sapiens, UniProt Q9Y616).
T1 construct: IRAK Endogenous HTRF Degradation Assay; endogenous in cells
T1 sequence (Q9Y616 1-596): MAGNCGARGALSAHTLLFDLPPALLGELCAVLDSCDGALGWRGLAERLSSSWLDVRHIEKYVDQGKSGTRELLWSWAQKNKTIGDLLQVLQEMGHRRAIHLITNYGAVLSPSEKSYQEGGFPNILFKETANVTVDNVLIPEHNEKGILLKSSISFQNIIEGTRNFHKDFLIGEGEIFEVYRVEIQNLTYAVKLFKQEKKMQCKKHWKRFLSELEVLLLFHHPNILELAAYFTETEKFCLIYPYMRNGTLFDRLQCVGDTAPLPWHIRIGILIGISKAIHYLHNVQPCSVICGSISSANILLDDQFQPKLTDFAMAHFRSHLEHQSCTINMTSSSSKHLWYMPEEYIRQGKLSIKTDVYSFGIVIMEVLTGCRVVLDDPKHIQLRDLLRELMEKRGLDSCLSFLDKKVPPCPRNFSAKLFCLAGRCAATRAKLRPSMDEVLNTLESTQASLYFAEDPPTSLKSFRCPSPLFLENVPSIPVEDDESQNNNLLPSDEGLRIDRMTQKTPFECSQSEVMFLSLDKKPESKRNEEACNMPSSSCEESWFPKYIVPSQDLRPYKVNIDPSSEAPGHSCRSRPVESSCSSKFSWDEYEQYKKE
As to the kind of experiment: IRAK3 biochemical binding assay (LanthaScreen Eu Kinase Binding, TR-FRET). In a few lines: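 TR-FRET tracer-displacement binding with 10 nM IRAK3, 2 nM Eu-anti-GST antibody and 10 nM tracer in 50 mM HEPES pH 7.4, MgCl2, 1 mM EGTA, 0.01% Brij-35. Compounds in 3-fold dilutions, 1 h at room temperature. 665/615 nm ratio gave % inhibition; IC50 and Hill slope from dose-response fit.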

The target of assay [2] is T1, IRAK3. As to the kind of experiment: IRAK endogenous HTRF degradation assay (Total-IRAK3 HTRF kit). The format is cell-based. The note with it: overnight incubation, lowest percentage of protein remaining. In a few lines: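 Cells (~50 k) incubated overnight with 3-fold serial dilutions of compound, then lysed; total IRAK3 read by HTRF (665/615 nm ratio ×10,000), normalized to DMSO as 100%. EC50 from four-parameter logistic fit; Dmax = 100 − Ymin (lowest % protein remaining); DC50 = concentration giving 50% degradation.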

In assay [1], `Cc1cc(-c2cnc(Nc3cnn([C@H]4CCN(CCN5CCN(c6ccc(C7CCC(=O)NC7=O)cc6)CC5)[C@@H](C)C4)c3)c3nccn23)c(F)cc1F` (stereo partly drawn) [Compound 26, 3-(4-(4-(2-((2S,4S)-4-(4-((5-(2,4-difluoro-5-methylphenyl)imdazo [1,2-a]pyrazin-8-yl)amino)-1H-pyrazol-1-yl)-2-methylpiperidin-1-yl)ethyl)piperazin-1-yl)phenyl) piperidine-2,6-dione] had a 50% inhibitory concentration (IC50) of 1.1 nM. For the same compound, in assay [2], the “IRAK3 HTRF degradation Ymin” value turned out to be 12%.
On to `COc1cc(N2CCN(CCN3CCC(n4cc(Nc5ncc(-c6cc(C)c(F)cc6F)n6ccnc56)cn4)CC3)CC2)ccc1C1CCC(=O)NC1=O` (stereo not shown) [Compound 25, 3-(4-(4-(2-(4-(4-((5-(2,4-difluoro-5-methylphenyl)imdazo [1,2-a]pyrazin-8-yl)amino)-1H-pyrazol-1-yl)piperidin-1-yl)ethyl)piperazin-1-yl)-2-methoxyphenyl) piperidine-2,6-dione], for which the IC50 in assay [1] amounted to 1.7 nM. Also, the “IRAK3 HTRF degradation Ymin” value in assay [2] was 18%.
